For assay [1], the target named is T1, purified rat liver 6-phosphofructo-1-kinase (Rattus norvegicus, UniProt P30835).
T1 construct: purified rat liver 6-phosphofructo-1-kinase; from tissue; host or cells: rat liver
T1 sequence (P30835 2-780 limits assumed): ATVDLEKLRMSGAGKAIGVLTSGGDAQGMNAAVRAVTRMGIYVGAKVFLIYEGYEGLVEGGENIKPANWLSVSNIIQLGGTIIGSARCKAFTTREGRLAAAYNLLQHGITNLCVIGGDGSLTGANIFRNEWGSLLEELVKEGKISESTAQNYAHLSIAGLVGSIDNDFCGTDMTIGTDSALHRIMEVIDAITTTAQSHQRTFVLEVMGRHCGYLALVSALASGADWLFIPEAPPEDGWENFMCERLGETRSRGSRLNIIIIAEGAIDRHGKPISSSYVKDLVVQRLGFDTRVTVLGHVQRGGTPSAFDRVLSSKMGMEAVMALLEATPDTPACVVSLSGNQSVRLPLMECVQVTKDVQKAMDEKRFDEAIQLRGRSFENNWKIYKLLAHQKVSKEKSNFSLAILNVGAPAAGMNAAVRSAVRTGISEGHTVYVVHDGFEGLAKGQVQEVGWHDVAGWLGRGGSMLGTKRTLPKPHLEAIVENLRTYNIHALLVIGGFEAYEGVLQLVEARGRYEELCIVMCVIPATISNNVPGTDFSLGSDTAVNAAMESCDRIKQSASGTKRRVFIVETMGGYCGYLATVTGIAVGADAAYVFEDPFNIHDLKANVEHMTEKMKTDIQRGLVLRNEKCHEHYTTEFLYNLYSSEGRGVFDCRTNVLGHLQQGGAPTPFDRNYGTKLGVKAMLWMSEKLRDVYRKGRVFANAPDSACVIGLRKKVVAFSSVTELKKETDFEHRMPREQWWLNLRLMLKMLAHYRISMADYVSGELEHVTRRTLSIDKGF
Put plainly: stimulation of 6-phosphofructo-1-kinase (PFK), aldolase-coupled spectrophotometric assay. The conditions noted are these: pH 7.3, 30° C., 1 mM ATP, 0.2 mM fructose-6-phosphate, read-out: PFK ED50. It is filed as biochemical. On the procedure: (§1) The novel compounds of this invention were tested for their ability to stimulate the enzyme 6-phosphofructo-1-kinase ("PFK") and for their ability to inhibit the enzyme fructose-1,6-bisphosphatase ("FBP") using the procedures described below.
Effects on the activity of PFK were determined using an aldolase-coupled, spectrophotometric assay. The assay mixture contained: 50 mM N-tris(hydroxymethyl) methyl-2-aminoethanesulfonic acid, hydrochloride ("TES-HCl", pH 7.3); 1 mM ethylenediaminetetraacetic acid ("EDTA"); 6 mM magnesium chloride; 2.5 mM dithiothreitol; 0.165 mM nicotinamide adenine dinucleotide ("NADH"); 1 mM adenosine triphosphate ("ATP"); 0.04U aldolase; 0.4U triose phosphate isomerase; 1.5U alpha-glycerolphosphate dehydrogenase; 0.lU of purified rat liver 6-phosphofructo-1-kinase; and various concentrations of the test compound, all in a final volume of 1 ml. The mixture was preincubated for 3 minutes at 30° C. and then the reaction was initiated with 0.2 mM fructose-6-phosphate. The rate of decrease in absorbance at 340 nm was measured at 30° C. with a recording spectrophotometer.

Assay [2] concerns the target T2, purified rat liver FBP (fructose-1,6-bisphosphatase) (Rattus norvegicus, UniProt P19112).
T2 construct: purified rat liver FBP; from tissue; host or cells: rat liver
T2 sequence (P19112 2-363 limits assumed): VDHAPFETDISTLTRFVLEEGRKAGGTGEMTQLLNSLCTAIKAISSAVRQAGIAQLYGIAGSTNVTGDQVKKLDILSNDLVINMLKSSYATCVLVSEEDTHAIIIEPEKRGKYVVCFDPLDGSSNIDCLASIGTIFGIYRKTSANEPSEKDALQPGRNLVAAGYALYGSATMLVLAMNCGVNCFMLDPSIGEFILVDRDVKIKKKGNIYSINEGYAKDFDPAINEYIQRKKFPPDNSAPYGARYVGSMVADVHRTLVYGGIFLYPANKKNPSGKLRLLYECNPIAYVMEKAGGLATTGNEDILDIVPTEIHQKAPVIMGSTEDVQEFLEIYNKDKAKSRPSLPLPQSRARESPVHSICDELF
Put plainly: inhibition of fructose-1,6-bisphosphatase (FBP), spectrophotometric assay. The conditions noted are these: pH 7.4, 30° C., 0.02 mM fructose-1,6-bis-phosphate. It is filed as biochemical. On the procedure: as §1
Effects on the activity of FBP were determined using a spectrophotometric assay. The assay mixture contained: 100 mM tris(hydroxymethyl)aminomethane, hydrochloride ("TRIS-HCl", pH 7.4); 2.5 mM beta-mercaptoethanol; 2 mM magnesium chloride; 0.05 mM EDTA; 0.2 mM nicotinamide adenine dinucleotide phosphate ("NADP"); 10 U phosphoglucose isomerase; 5 U glucose-6-phosphate dehydrogenase; 0.02U of purified rat liver FBP; and various concentrations of the test compound, all in a final volume of 1 ml. The mixture was preincubated for 3 minutes at 30° C. and then the reaction was initiated with 0.02 mM fructose-1,6-bis-phosphate. The rate of increase in absorbance at 340 nm was measured at 30° C. with a recording spectrophotometer

Take `O=P(O)(O)OC[C@H]1OC(C(F)P(=O)(O)O)[C@@H](O)[C@@H]1O` (mixture of isomers) [2,5-Anhydro-1-deoxy-1-fluoro-1-phosphono-D-glucitol and D-mannitol, 6-(dihydrogen phosphate) mixture (70:30)]: the EC50 in assay [1] was determined as 10 µM. In assay [2], this molecule showed an IC50 of 54 µM.

`O=P(O)(O)OC[C@H]1O[C@@](CO)(C(F)P(=O)(O)O)[C@@H](O)[C@@H]1O` (single isomer, unassigned) [2,5-Anhydro-1-deoxy-1-fluoro-2-(hydroxymethyl)-1-phosphono-D-glucitol, 6-(dihydrogen phosphate)]: the EC50 in assay [1] was found to be 0.7 µM. In addition, the IC50 in assay [2] stood at 110 µM.

As to `O=P(O)(O)OC[C@H]1O[C@H](C(F)(F)P(=O)(O)O)[C@@H](O)[C@@H]1O` [2,5-Anhydro-1-deoxy-1,1-difluoro-1-phosphono-D-mannitol, 6-(dihydrogen phosphate)], the EC50 in assay [1] turned out to be 14 µM. In assay [2], this molecule displayed an IC50 of 226 µM.

For `O=P(O)(O)OC[C@H]1O[C@H](C(F)P(=O)(O)O)[C@@H](O)[C@@H]1O` (stereo partly drawn) [2,5-Anhydro-1-deoxy-1-fluoro-1-phosphono-D-mannitol, 6-(dihydrogen phosphate)], in assay [1], the EC50 turned out to be 22 µM. The midpoint of inhibition in assay [2], the IC50, lay at 114 µM.

For the molecule `O=P(O)(O)OC[C@H]1O[C@](CO)(C(F)P(=O)(O)O)[C@@H](O)[C@@H]1O` (stereo partly drawn) [2,5-Anhydro-2-C-(fluorophosphonomethyl)-D-glucitol, 6-(dihydrogen phosphate)], in assay [1], the EC50 stood at 1.3 µM. This molecule also registered an IC50 in assay [2] of 378 µM.

On to `O=P(O)(O)OC[C@H]1O[C@](CO)(C(O)P(=O)(O)O)[C@@H](O)[C@@H]1O` (stereo partly drawn) [2,5-Anhydro-2-C-(hydroxyphosphonomethyl)-D-glucitol, 6-(dihydrogen phosphate)], for which the EC50 in assay [1] stood at 20 µM. Also, in assay [2], half-maximal inhibition (IC50) required 393 µM.

As for `O=P(O)(O)OC[C@H]1O[C@H](CC(F)(F)P(=O)(O)O)[C@@H](O)[C@@H]1O` [3,6-Anhydro-1,2-dideoxy-1,1-difluoro-1-phosphono-D-manno-heptitol, 7-(dihydrogen phosphate)], the EC50 in assay [1] amounted to 3 µM. This molecule also gave an IC50 in assay [2] of 27 µM.

`O=P(O)(O)OC[C@H]1O[C@H](CC(F)P(=O)(O)O)[C@@H](O)[C@@H]1O` (stereo partly drawn) [[1R(and 1S)]-3,6-Anhydro-1,2-dideoxy-1-fluoro-1-phosphono-D-manno-heptitol, 7-(dihydrogen phosphate)]: the EC50 in assay [1] is 1.3 µM. In assay [2], this molecule came in with an IC50 of 61 µM.

As for `O=P(O)(O)OC[C@H]1O[C@H](C(O)P(=O)(O)O)[C@@H](O)[C@@H]1O` (stereo partly drawn) [[1R(and/or 1S)]-2,5-Anhydro-1-C-phosphono-D-mannitol, 6-(dihydrogen phosphate)], the EC50 in assay [1] is 13 µM. Besides, the IC50 in assay [2] amounted to 44 µM.

Take `O=P(O)(O)OC[C@H]1O[C@H](CC(O)P(=O)(O)O)[C@@H](O)[C@@H]1O` (stereo partly drawn) [[1R(and/or 1S)]-3,6-Anhydro-2-deoxy-1-phosphono-D-manno-heptitol, 7-(dihydrogen phosphate)]: in assay [1], the EC50 was 1 µM. The molecule also showed an IC50 in assay [2] of 62 µM.

The values are drawn from US4943629A, “Antidiabetic alpha-substituted phosphonates” (American Cyanamid Company, priority 1988, dated 1990).
